Laboratory results as given in patent publication US12528840B2, “Transcription active complex targeting cancer drug from viral protein sequence” (The Regents of the University of California, priority 2020, dated 2026).

Assays:
BCBL-1 PEL cell line = experiment: PEL xenograft study in NRG mice
Text: We mapped the responsible domain and molecular mechanisms with biochemical and genetic approaches (FIG. 1).
Based on cell killing efficacies of the peptide in vitro, we select two peptides and examine the efficacies to inhibit tumor growth in xenograft models. We use a PEL cell xenograft models. […] Standardized PK/PD studies are completed in rat models at the UCD comprehensive cancer center PK/PD core facility.
Amino acid sequence alignment identified homologous protein sequences in other gamma-herpesvirus protein sequence (The Top table in FIG. 8a, also shown in FIG. 2). Based on their alignment, “non-natural” protein sequences were generated by substituting specific amino acids (The peptides are: Wt d1-1, DS 3-1, DE 3-1, and Mut d1-1 (control peptide) from the top to the bottom in the Bottom Table in FIG. 8a). Those four peptides were used in MTT assays in FIG. 8b to examine the effects on cell growth of BCBL-1 […] effusion lymphoma (PEL) cell line. Also tested are three D-amino acid substitutions first two amino acids and c-terminal amino acid (ST d3-1), in comparison with one D-amino acid peptide (N-terminus) (Wt d3-1).

NU-DUL1 cell = experiment: Cell growth inhibition with deletion peptides; format: cell-based
Text: FIG. 7. Cell growth inhibition with deletion peptides identified key amino acid residue.
BCL2 mutations are frequently seen in B-cell lymphoma and the cell types are often refractory to chemotherapy due to anti-apoptotic phenotype. […] In addition, Essential Leucine residue is identified with the deletion peptides.

SWI/SNF components = experiment: ELISA-based binding assay with purified SWI/SNF components; conditions: biotin-conjugated peptide, HRP-streptavidin detection
Text: FIG. 17(a) SDS-PAGE analysis of five SWI/SNF components individually prepared from baculovirus infected Sf9 cells. FIG. 17(b) A schematic illustration of ELISA assay to evaluate VGN50 and SWI/SNF interaction. FIG. 17(c) Analysis of VGN50 binding to SWI/SNF components by ELISA. Peptide binding measured as OD values at 450 nm are shown. Mean OD values were compared between the VGN50 and Mut-P in each concentration using unpaired t-test. **p<0.01, *p<0.05, NS: no significance. Data are presented as mean±SD.
To confirm the basis of VGN50 (a.k.a. MBK50) mechanism of action, the biochemical interaction between VGN50 and SWI/SNF proteins (i.e., VGN50 target molecules), were examined by ELISA-based binding assays using purified 5 individual SWI/SNF components prepared from baculovirus-infected Sf9 cells (FIG. 17a). Increasing concentrations of biotin-conjugated VGN50 or Mut-P were incubated in an ELISA plate coated with each SWI/SNF component, and the bound peptides were detected by HRP-streptavidin (FIG. 17b).

[1] = tested on: human peripheral blood mononuclear cells (PBMCs); experiment: Viability by flow cytometry after live/dead staining, PBMC versus cancer cell lines; format: cell-based; conditions: healthy donor PBMCs vs e.g. THP-1 and BCBL-1
Protocol: (§1) FIG. 6. Viral and cellular responses to K-Rta peptide; identification of VGN50. (a) Protein sequence alignment. FIG. 6(A) The effect of VGN50 on various cancer cell types. MTT assays were performed with the indicated cell lines treated with various VGN50 concentrations. The O.D. of mock-treated samples were set as 100%, and O.D. from detergent treated cells were set as 0%. Percentage viability+/−SD was calculated for each treatment (N=3 samples/treatment). FIG. 6(B) Viability assay with flow cytometry. Cell viability was measured in triplicate with live/dead staining and the cell killing effects on cancer cells was compared with normal peripheral blood mononuclear cells (PBMC) from three healthy donors. Results are presented as percentage viability+/−SD deviation (N=3 samples/group).
(§2) As shown in FIG. 6(a), multiple cancer cell lines were used for MTT assay to evaluate cancer cell killing efficacies of the MBK50 peptide at different concentrations (cell variability studies). […] Importantly, human peripheral blood mononuclear cells (PBMCs) from healthy donors were approximately 10-fold less sensitive to MBK-mediated killing compared to myeloid and lymphoid cancer cell lines (e.g., THP-1 and BCBL-1) as assessed by flow cytometry after live/dead staining (FIG. 6(b)). […]

PEL cells = experiment: PEL cell killing by delivered peptide (MTS live-cell assay); format: cell-based; conditions: peptide delivered into PEL, a MYC-dependent cancer
Protocol: FIGS. 1A-H. Viral protein sequence based cancer drug. (FIG. 1A) Discovery of hijacking transcription machinery in KSHV reactivating cells (Chen et al., J. Virol 2017). […] (FIG. 1B) Reporter assay. KSHV ORF50 overexpression inhibits MYC activation. (FIG. 1C) Chromatin immunoprecipitation with Mass Spectrometry. Proteins inducibly interact with both ORF50 and RNA polII are shown. […] (FIG. 1E) Mapping of interacting domain. GST-pull down was performed to identify NCoA2 binding domains. Purified NCoA2 was made from recombinant baculovirus infected cells and KSHV ORF50 deletion proteins were made in E. coli. Peptides are then generated as TAT-fusion for cell penetration. (FIG. 1F) ChIP-seq and RNA-seq. ChIP-seq was performed to identify NCOA2 target genes in primary effusion lymphoma cells. NCoA2 localization is highly associated with active genes and localizes with RNA pol II at enhancer regions. […] The qRT-PCR was performed with specific primers. (FIG. 1H) Gene set enrichment analyses (GSEA). RNA sequencing was performed with peptide-treated PEL cells. […] (FIG. 1I) The peptide drug. Wt peptide or mutant peptide was incubated in culture media. Forty-eight hours later, live cells were measured by applying MTS. Cell viability was compared with no-treated samples. No treated sample was set as 1.

THP-1 = experiment: MTT assay, THP-1; format: cell-based; conditions: THP-1 monocytic leukemia cell line
Protocol: as §1, §2

B cells = experiment: B cell expansion in U-bottom plate upon sCD40L or ODN 2006 stimulation; format: cell-based; conditions: 32 μM
Protocol: B cells were prepared by magnetic beads from healthy donor PBMC (n=2). Representative pictures of B cell culture in a 96 well U-bottom plate in the presence of sCD40L (T cell dependent stimulation) or ODN 2006 (TLR9 ligand)(T cell independent stimulation) at indicated concentration without or with MBK50 (16, 32 μM) or mutant peptide (32 μM). The radius of cell volume in each well roughly correlate to the total cell numbers.

In the case of LSSILQGLYQLDT [MBK50], the “efficacy to target PEL in xenograft” value (BCBL-1 PEL cell line) is reported as “demonstrated efficacies”, the “toxicity to the host mice” value (BCBL-1 PEL cell line; xenograft studies) is reported as “without any measurable toxicities” and the “activity on BCL2 negative lymphoma cell lines” value (NU-DUL1 cell) is reported as “still works”. The “lowest concentration at which peptide bound the 5 SWI/SNF components” value (SWI/SNF components) was 50 nM, the “lower sensitivity of PBMCs to killing compared to myeloid and lymphoid cancer cell lines” value [1] was “approximately 10 fold” and the “killing of PEL cancer cells” value (PEL cells) was “killed the cancer cells”. The “sensitivity to cell killing” value (THP-1) was “sensitive”, the “cell volume in well (correlates to total cell numbers)” value (B cells; donor #46) was “significantly reduced” and the “cell volume in well (correlates to total cell numbers)” value (B cells; donor #47) was “less so”.
